Laboratory results taken from PubChem BioAssay AID2060496 (Molecular Pharmacology Branch, DTP, NCI, 2025).

Tested on: 276233-004-R-J1-PDC complex spheroid viability
Experiment: Anticancer human tumor 276233-004-R-J1-PDC patient-derived colon adenocarcinoma cell line growth inhibition [GQUAD]
Settings: for IC50: curve of first compound; for viability, T/C: stronger effect = lower value
In short: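 Tumor cells were grown as complex spheroids with HUVEC endothelial cells and mesenchymal stem cells as stroma. G-quadruplex stabilizers were combined with targeted agents over half-log dilutions from near the clinical Cmax, or from 10 microM.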

[1] = second compound 0.0316 µM, first compound 0.000999 µM
[2] = second compound 0.0316 µM, first compound 0.00316 µM
[3] = second compound 0.0316 µM, first compound 0.00999 µM
[4] = second compound 0.0316 µM, first compound 0.0316 µM
[5] = second compound 0.0316 µM, first compound 0.0999 µM
[6] = second compound 0.0316 µM, first compound 0.316 µM
[7] = second compound 0.1 µM, first compound 0.000999 µM
[8] = second compound 0.1 µM, first compound 0.00316 µM
[9] = second compound 0.1 µM, first compound 0.00999 µM
[10] = second compound 0.1 µM, first compound 0.0316 µM
[11] = second compound 0.1 µM, first compound 0.0999 µM
[12] = second compound 0.1 µM, first compound 0.316 µM
[13] = second compound 0.316 µM, first compound 0.000999 µM
[14] = second compound 0.316 µM, first compound 0.00316 µM
[15] = second compound 0.316 µM, first compound 0.00999 µM
[16] = second compound 0.316 µM, first compound 0.0316 µM
[17] = second compound 0.316 µM, first compound 0.0999 µM
[18] = second compound 0.316 µM, first compound 0.316 µM
[19] = second compound 1 µM, first compound 0.000999 µM
[20] = second compound 1 µM, first compound 0.00316 µM
[21] = second compound 1 µM, first compound 0.00999 µM
[22] = second compound 1 µM, first compound 0.0316 µM
[23] = second compound 1 µM, first compound 0.0999 µM
[24] = second compound 1 µM, first compound 0.316 µM
[25] = second compound 3.16 µM, first compound 0.000999 µM
[26] = second compound 3.16 µM, first compound 0.00316 µM
[27] = second compound 3.16 µM, first compound 0.00999 µM
[28] = second compound 3.16 µM, first compound 0.0316 µM
[29] = second compound 3.16 µM, first compound 0.0999 µM
[30] = second compound 3.16 µM, first compound 0.316 µM
[31] = second compound 10 µM, first compound 0.000999 µM
[32] = second compound 10 µM, first compound 0.00316 µM
[33] = second compound 10 µM, first compound 0.00999 µM
[34] = second compound 10 µM, first compound 0.0316 µM
[35] = second compound 10 µM, first compound 0.0999 µM
[36] = second compound 10 µM, first compound 0.316 µM
[37] = second compound 0.0316 µM, first compound 0.1 µM
[38] = second compound 0.0316 µM, first compound 1 µM
[39] = second compound 0.0316 µM, first compound 3.16 µM
[40] = second compound 0.0316 µM, first compound 10 µM
[41] = second compound 0.1 µM, first compound 0.1 µM
[42] = second compound 0.1 µM, first compound 1 µM
[43] = second compound 0.1 µM, first compound 3.16 µM
[44] = second compound 0.1 µM, first compound 10 µM
[45] = second compound 0.316 µM, first compound 0.1 µM
[46] = second compound 0.316 µM, first compound 1 µM
[47] = second compound 0.316 µM, first compound 3.16 µM
[48] = second compound 0.316 µM, first compound 10 µM
[49] = second compound 1 µM, first compound 0.1 µM
[50] = second compound 1 µM, first compound 1 µM
[51] = second compound 1 µM, first compound 3.16 µM
[52] = second compound 1 µM, first compound 10 µM
[53] = second compound 3.16 µM, first compound 0.1 µM
[54] = second compound 3.16 µM, first compound 1 µM
[55] = second compound 3.16 µM, first compound 3.16 µM
[56] = second compound 3.16 µM, first compound 10 µM
[57] = second compound 10 µM, first compound 0.1 µM
[58] = second compound 10 µM, first compound 1 µM
[59] = second compound 10 µM, first compound 3.16 µM
[60] = second compound 10 µM, first compound 10 µM
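Further: spheroids exposed to drugs for seven days.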
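Wherever viability, T/C is given: 100% = DMSO vehicle control viability.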

CCc1c2c(nc3ccc(O)cc13)-c1cc3c(c(=O)n1C2)COC(=O)[C@]3(O)CC + Cc1cnc(CNC(=O)c2c(=O)c3ccc(N4CCCN(C)CC4)nc3n3c2sc2ccccc23)cn1
IC50 (second compound 0.0316 µM): > 316 nM
IC50 (second compound 0.1 µM): > 316 nM
IC50 (second compound 0.316 µM): > 316 nM
IC50 (second compound 1 µM): > 316 nM
IC50 (second compound 3.16 µM): > 316 nM
IC50 (second compound 10 µM): > 316 nM
viability, T/C [1]: 96.8%
viability, T/C [2]: 92.2%
viability, T/C [3]: 90.9%
viability, T/C [4]: 90%
viability, T/C [5]: 99.4%
viability, T/C [6]: 103%
viability, T/C [7]: 97.9%
viability, T/C [8]: 90.4%
viability, T/C [9]: 90.6%
viability, T/C [10]: 110%
viability, T/C [11]: 94.2%
viability, T/C [12]: 89.2%
viability, T/C [13]: 91.6%
viability, T/C [14]: 103%
viability, T/C [15]: 105%
viability, T/C [16]: 84.8%
viability, T/C [17]: 85.8%
viability, T/C [18]: 79.4%
viability, T/C [19]: 85.4%
viability, T/C [20]: 74.7%
viability, T/C [21]: 84.7%
viability, T/C [22]: 77%
viability, T/C [23]: 83.2%
viability, T/C [24]: 76.2%
viability, T/C [25]: 81.6%
viability, T/C [26]: 96.1%
viability, T/C [27]: 80.2%
viability, T/C [28]: 67.4%
viability, T/C [29]: 85.1%
viability, T/C [30]: 71.5%
viability, T/C [31]: 72.4%
viability, T/C [32]: 88.4%
viability, T/C [33]: 75.5%
viability, T/C [34]: 65.5%
viability, T/C [35]: 77.8%
viability, T/C [36]: 62%

CCCS(=O)(=O)Nc1ccc(F)c(C(=O)c2c[nH]c3ncc(-c4ccc(Cl)cc4)cc23)c1F + CN(C)c1ccc(Nc2c3ccc(NC(=O)CCN4CCCC4)cc3nc3cc(NC(=O)CCN4CCCC4)ccc23)cc1
IC50 (second compound 0.0316 µM): > 10000 nM
IC50 (second compound 0.1 µM): > 10000 nM
IC50 (second compound 0.316 µM): > 10000 nM
IC50 (second compound 1 µM): > 10000 nM
IC50 (second compound 3.16 µM): > 10000 nM
IC50 (second compound 10 µM): < 31.6 nM
viability, T/C [4]: 81.6%
viability, T/C [37]: 83.2%
viability, T/C [6]: 78%
viability, T/C [38]: 102%
viability, T/C [39]: 91%
viability, T/C [40]: 65.2%
viability, T/C [10]: 76.4%
viability, T/C [41]: 80%
viability, T/C [12]: 78.2%
viability, T/C [42]: 77.1%
viability, T/C [43]: 71%
viability, T/C [44]: 70.8%
viability, T/C [16]: 72.9%
viability, T/C [45]: 64.3%
viability, T/C [18]: 68.8%
viability, T/C [46]: 63%
viability, T/C [47]: 65.3%
viability, T/C [48]: 55.1%
viability, T/C [22]: 60.2%
viability, T/C [49]: 58.2%
viability, T/C [24]: 56.8%
viability, T/C [50]: 65.2%
viability, T/C [51]: 53.3%
viability, T/C [52]: 63.4%
viability, T/C [28]: 62.1%
viability, T/C [53]: 56.6%
viability, T/C [30]: 50.8%
viability, T/C [54]: 46.1%
viability, T/C [55]: 59.1%
viability, T/C [56]: 55.6%
viability, T/C [34]: 33.9%
viability, T/C [57]: 45.9%
viability, T/C [36]: 40.4%
viability, T/C [58]: 38.2%
viability, T/C [59]: 39.3%
viability, T/C [60]: 56.6%

C=CCn1c(=O)c2cnc(Nc3ccc(N4CCN(C)CC4)cc3)nc2n1-c1cccc(C(C)(C)O)n1 + CN(C)c1ccc(Nc2c3ccc(NC(=O)CCN4CCCC4)cc3nc3cc(NC(=O)CCN4CCCC4)ccc23)cc1
IC50 (second compound 0.0316 µM): > 10000 nM
IC50 (second compound 0.1 µM): > 10000 nM
IC50 (second compound 0.316 µM): > 10000 nM
IC50 (second compound 1 µM): < 31.6 nM
IC50 (second compound 3.16 µM): 459 nM
IC50 (second compound 10 µM): < 31.6 nM
viability, T/C [4]: 87.6%
viability, T/C [37]: 86.2%
viability, T/C [6]: 66.3%
viability, T/C [38]: 68.4%
viability, T/C [39]: 68.6%
viability, T/C [40]: 88.7%
viability, T/C [10]: 81.6%
viability, T/C [41]: 80.5%
viability, T/C [12]: 49%
viability, T/C [42]: 64.7%
viability, T/C [43]: 53.2%
viability, T/C [44]: 67.9%
viability, T/C [16]: 81.5%
viability, T/C [45]: 67.3%
viability, T/C [18]: 54.6%
viability, T/C [46]: 51.6%
viability, T/C [47]: 54.8%
viability, T/C [48]: 75%
viability, T/C [22]: 47.1%
viability, T/C [49]: 56.2%
viability, T/C [24]: 49.7%
viability, T/C [50]: 42.5%
viability, T/C [51]: 54.7%
viability, T/C [52]: 74%
viability, T/C [28]: 56.9%
viability, T/C [53]: 52.5%
viability, T/C [30]: 57.2%
viability, T/C [54]: 38.1%
viability, T/C [55]: 52.1%
viability, T/C [56]: 40.2%
viability, T/C [34]: 41.4%
viability, T/C [57]: 45.5%
viability, T/C [36]: 53.8%
viability, T/C [58]: 38.9%
viability, T/C [59]: 47.9%
viability, T/C [60]: 54.6%

Cn1ncnc1[C@H]1c2n[nH]c(=O)c3cc(F)cc(c23)N[C@@H]1c1ccc(F)cc1 + CN(C)c1ccc(Nc2c3ccc(NC(=O)CCN4CCCC4)cc3nc3cc(NC(=O)CCN4CCCC4)ccc23)cc1
IC50 (second compound 0.0316 µM): > 316 nM
IC50 (second compound 0.1 µM): > 316 nM
IC50 (second compound 0.316 µM): > 316 nM
IC50 (second compound 1 µM): > 316 nM
IC50 (second compound 3.16 µM): > 316 nM
IC50 (second compound 10 µM): < 0.999 nM
viability, T/C [1]: 81.5%
viability, T/C [2]: 96.6%
viability, T/C [3]: 85.2%
viability, T/C [4]: 88.2%
viability, T/C [5]: 94.6%
viability, T/C [6]: 97.8%
viability, T/C [7]: 90.3%
viability, T/C [8]: 81.3%
viability, T/C [9]: 90.7%
viability, T/C [10]: 84.7%
viability, T/C [11]: 70.4%
viability, T/C [12]: 64.3%
viability, T/C [13]: 68%
viability, T/C [14]: 62.4%
viability, T/C [15]: 69.6%
viability, T/C [16]: 61.3%
viability, T/C [17]: 61.9%
viability, T/C [18]: 67.4%
viability, T/C [19]: 57.5%
viability, T/C [20]: 51%
viability, T/C [21]: 42.3%
viability, T/C [22]: 58.1%
viability, T/C [23]: 48%
viability, T/C [24]: 52.8%
viability, T/C [25]: 62.4%
viability, T/C [26]: 60.7%
viability, T/C [27]: 54.5%
viability, T/C [28]: 60.7%
viability, T/C [29]: 59.9%
viability, T/C [30]: 52.7%
viability, T/C [31]: 47.2%
viability, T/C [32]: 43.1%
viability, T/C [33]: 55.8%
viability, T/C [34]: 47.6%
viability, T/C [35]: 57.1%
viability, T/C [36]: 54.2%
